# Target: T1, ΔF508-CFTR (Homo sapiens, UniProt P13569, DEL508-508)
# T1 construct: expressed in transfected cells
# Test: Membrane potential optical (FRET/VIPR) assay, identification of potentiator compounds
# Assay type: cell-based
# Conditions: Table 3, assay not given; for % Activity: relative efficacy
# Method in brief: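 Double-addition potentiator screen: compound delivered in gluconate-substituted Cl^--free medium, membrane potential followed via CC2-DMPE/DiSBAC2(3) FRET on VIPR. Cells were ΔF508-CFTR-expressing NIH3T3 mouse fibroblasts, held 2 h at 37° C. then 24 h at 27° C. before assay.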
# T1 sequence (P13569 with tags, fused parts or gaps DEL508-508): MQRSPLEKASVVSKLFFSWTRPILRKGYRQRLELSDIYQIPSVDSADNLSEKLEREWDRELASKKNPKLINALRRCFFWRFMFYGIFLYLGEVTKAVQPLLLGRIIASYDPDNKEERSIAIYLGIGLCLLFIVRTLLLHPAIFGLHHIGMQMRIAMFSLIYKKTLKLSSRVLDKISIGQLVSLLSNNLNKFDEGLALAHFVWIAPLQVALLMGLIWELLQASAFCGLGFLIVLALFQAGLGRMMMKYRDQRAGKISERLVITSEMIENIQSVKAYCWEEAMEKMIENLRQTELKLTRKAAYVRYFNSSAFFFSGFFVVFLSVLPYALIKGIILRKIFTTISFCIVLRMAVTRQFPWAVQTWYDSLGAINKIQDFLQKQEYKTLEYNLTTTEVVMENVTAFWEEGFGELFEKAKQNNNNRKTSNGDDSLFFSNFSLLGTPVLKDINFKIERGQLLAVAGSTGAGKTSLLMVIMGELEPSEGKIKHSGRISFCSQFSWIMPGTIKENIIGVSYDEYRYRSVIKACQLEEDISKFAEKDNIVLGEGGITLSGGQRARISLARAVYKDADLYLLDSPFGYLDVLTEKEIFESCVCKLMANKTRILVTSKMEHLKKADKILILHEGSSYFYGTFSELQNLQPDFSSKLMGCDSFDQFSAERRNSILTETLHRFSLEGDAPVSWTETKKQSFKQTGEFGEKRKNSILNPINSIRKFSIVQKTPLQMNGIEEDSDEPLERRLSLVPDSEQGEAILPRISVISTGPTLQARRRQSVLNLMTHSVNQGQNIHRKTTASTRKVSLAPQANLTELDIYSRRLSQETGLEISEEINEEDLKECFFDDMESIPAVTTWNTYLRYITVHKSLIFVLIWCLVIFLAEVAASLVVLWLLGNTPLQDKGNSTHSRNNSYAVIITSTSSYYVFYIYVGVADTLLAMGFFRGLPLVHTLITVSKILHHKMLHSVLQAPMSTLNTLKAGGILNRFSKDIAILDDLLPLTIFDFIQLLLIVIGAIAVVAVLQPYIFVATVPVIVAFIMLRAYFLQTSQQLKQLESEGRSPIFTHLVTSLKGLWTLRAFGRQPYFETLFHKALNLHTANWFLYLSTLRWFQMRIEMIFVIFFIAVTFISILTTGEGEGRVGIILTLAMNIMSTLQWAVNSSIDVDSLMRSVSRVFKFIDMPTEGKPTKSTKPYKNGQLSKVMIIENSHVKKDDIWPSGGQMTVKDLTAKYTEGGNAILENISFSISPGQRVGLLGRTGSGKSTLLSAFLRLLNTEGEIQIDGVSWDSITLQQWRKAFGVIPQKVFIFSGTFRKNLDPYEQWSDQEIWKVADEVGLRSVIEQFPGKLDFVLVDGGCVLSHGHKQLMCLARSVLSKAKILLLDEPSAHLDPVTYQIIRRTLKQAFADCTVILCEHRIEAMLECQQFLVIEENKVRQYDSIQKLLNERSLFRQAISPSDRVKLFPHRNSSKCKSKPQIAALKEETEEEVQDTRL
SMILES,% Activity,EC50 [µM]
"CS(=O)(=O)Nc1cccc(NC(=O)c2c[nH]c3ccccc3c2=O)c1 [Compound 214, N-(3-methylsulfonylaminophenyl)-4-oxo-1H-quinoline-3-carboxamide]",++ (between 25% to 100%),–
"O=C(Nc1ccccc1)c1c[nH]c2ccccc2c1=O [Compound 215, 4-Oxo-N-phenyl-1H-quinoline-3-carboxamide]",++ (between 25% to 100%),< 10
"O=C(Nc1ccc2[nH]ncc2c1)c1c[nH]c2ccccc2c1=O [Compound 217, N-(1H-indazol-5-yl)-4-oxo-1H-quinoline-3-carboxamide]",++ (between 25% to 100%),10 to 25
"CC1(c2cc(F)c(NC(=O)c3c[nH]c4ccc(F)cc4c3=O)cc2O)CCCCC1 [Compound 218, 6-fluoro-N-[2-fluoro-5-hydroxy-4-(1-methylcyclohexyl)-phenyl]-4-oxo-1H-quinoline-3-carboxamide]",++ (between 25% to 100%),< 10
"O=C(Nc1cnccn1)c1c[nH]c2ccccc2c1=O [Compound 219, 4-oxo-N-pyrazin-2-yl-1H-quinoline-3-carboxamide]",+ (<25%),25 to 60
"N#Cc1c(Cl)cccc1NC(=O)c1c[nH]c2ccccc2c1=O [Compound 222, N-(3-chloro-2-cyano-phenyl)-4-oxo-1H-quinoline-3-carboxamide]",++ (between 25% to 100%),10 to 25
"CSc1ccc(-c2ccccc2NC(=O)c2c[nH]c3ccccc3c2=O)cc1 [Compound 223, N-[2-(4-methylsulfanylphenyl)phenyl]-4-oxo-1H-quinoline-3-carboxamide]",++ (between 25% to 100%),< 10
"O=C(Nc1ccc(-c2ccccc2CNC(=O)C(F)(F)F)cc1)c1c[nH]c2ccccc2c1=O [Compound 224, 4-oxo-N-[4-[2-[(2,2,2-trifluoroacetyl)aminomethyl]phenyl]phenyl]-1H-quinoline-3-carboxamide]",++ (between 25% to 100%),< 10
"CCCc1ccc(NC(=O)c2c[nH]c3ccccc3c2=O)cc1 [Compound 226, 4-oxo-N-(4-propylphenyl)-1H-quinoline-3-carboxamide]",++ (between 25% to 100%),–
"O=C(Nc1ccccc1-c1nc2ccccc2[nH]1)c1c[nH]c2ccccc2c1=O [Compound 227, N-[2-(3H-benzoimidazol-2-yl)phenyl]-4-oxo-1H-quinoline-3-carboxamide]",+ (<25%),25 to 60
"Cc1cc2cc(NC(=O)c3c[nH]c4ccccc4c3=O)ccc2[nH]1 [Compound 230, N-(2-methyl-1H-indol-5-yl)-4-oxo-1H-quinoline-3-carboxamide]",++ (between 25% to 100%),10 to 25
"COC(=O)c1cccc(-c2cc(C(C)(C)C)c(O)cc2NC(=O)c2c[nH]c3ccccc3c2=O)c1 [Compound 231, 3-[4-hydroxy-2-[(4-oxo-1H-quinolin-3-yl)carbonylamino]-5-tert-butyl-phenyl]benzoic acid methyl ester]",++ (between 25% to 100%),< 10
"CC(=O)N1CCc2ccc(NC(=O)c3c[nH]c4ccccc4c3=O)cc21 [Compound 233, N-(1-acetylindolin-6-yl)-4-oxo-1H-quinoline-3-carboxamide]",+ (<25%),10 to 25
"O=C(Nc1cc2[nH]ccc2cc1C(F)(F)F)c1c[nH]c2ccccc2c1=O [Compound 234, 4-oxo-N-[5-(trifluoromethyl)-1H-indol-6-yl]-1H-quinoline-3-carboxamide]",++ (between 25% to 100%),< 10
"CC(C)c1ccc(NC(=O)c2c[nH]c3ccccc3c2=O)cn1 [Compound 235, N-(6-isopropyl-3-pyridyl)-4-oxo-1H-quinoline-3-carboxamide]",++ (between 25% to 100%),< 10
"O=C(Nc1ccc2c3c([nH]c2c1)CCCC3)c1c[nH]c2ccccc2c1=O [Compound 244, 4-oxo-N-(6,7,8,9-tetrahydro-5H-carbazol-2-yl)-1H-quinoline-3-carboxamide]",++ (between 25% to 100%),< 10
"O=C(Nc1ccccc1Oc1ccc(Cl)cc1Cl)c1c[nH]c2ccccc2c1=O [Compound 245, N-[2-(2,4-dichlorophenoxy)phenyl]-4-oxo-1H-quinoline-3-carboxamide]",++ (between 25% to 100%),< 10
"O=C(Nc1ccccc1-c1ccccc1Oc1ccccc1)c1c[nH]c2ccccc2c1=O [Compound 247, 4-oxo-N-[2-(2-phenoxyphenyl)phenyl]-1H-quinoline-3-carboxamide]",++ (between 25% to 100%),< 10
"CC(=O)Nc1cc(NC(=O)c2c[nH]c3ccccc3c2=O)ccc1C [Compound 248, N-(3-Acetylamino-4-methyl-phenyl)-4-oxo-1H-quinoline-3-carboxamide]",++ (between 25% to 100%),10 to 25
"CCc1ccc(NC(=O)OC)cc1NC(=O)c1c[nH]c2ccccc2c1=O [Compound 249, [4-ethyl-3-[(4-oxo-1H-quinolin-3-yl)carbonylamino]phenyl]aminoformic acid methyl ester]",++ (between 25% to 100%),10 to 25
"COc1ccc(NC(C)=O)cc1NC(=O)c1c[nH]c2ccccc2c1=O [Compound 250, N-(5-acetylamino-2-methoxy-phenyl)-4-oxo-1H-quinoline-3-carboxamide]",+ (<25%),25 to 60
"CC(C)COC(=O)NCC(C)(C)c1ccc(NC(=O)c2c[nH]c3ccccc3c2=O)cc1 [Compound 251, [2-methyl-2-[4-[(4-oxo-1H-quinolin-3-yl)carbonylamino]phenyl]-propyl]aminoformic acid isobutyl ester]",++ (between 25% to 100%),< 10

# Next, values leading:
% Activity,EC50 [µM],SMILES
+ (<25%),25 to 60,"O=C(Nc1nc2ccccc2[nH]1)c1c[nH]c2ccccc2c1=O [Compound 216, N-(3H-benzoimidazol-2-yl)-4-oxo-1H-quinoline-3-carboxamide]"
++ (between 25% to 100%),< 10,"CC(C)(C)c1cc(C(C)(C)C)c(NC(=O)c2c[nH]c3ccccc3c2=O)c(O)c1O [Compound 220, N-(2,3-dihydroxy-4,6-ditert-butyl-phenyl)-4-oxo-1H-quinoline-3-carboxamide]"
++ (between 25% to 100%),< 10,"CCCc1ccc(NC(=O)c2c[nH]c3ccccc3c2=O)cc1NC(=O)OC [Compound 221, [5-[(4-oxo-1H-quinolin-3-yl)carbonylamino]-2-propyl-phenyl]aminoformic acid methyl ester]"
++ (between 25% to 100%),< 10,"CCOC(=O)Nc1cc(NC(=O)c2c[nH]c3ccccc3c2=O)ccc1C(C)C [Compound 225, [2-isopropyl-5-[(4-oxo-1H-quinolin-3-yl)carbonylamino]phenyl]aminoformic acid ethyl ester]"
++ (between 25% to 100%),< 10,"O=C(Nc1ccccc1C(O)c1ccccc1)c1c[nH]c2ccccc2c1=O (centres unmarked) [Compound 228, N-[2-(hydroxy-phenyl-methyl)phenyl]-4-oxo-1H-quinoline-3-carboxamide]"
++ (between 25% to 100%),< 10,"CSc1ccccc1NC(=O)c1c[nH]c2ccccc2c1=O [Compound 229, N-(2-methylsulfanylphenyl)-4-oxo-1H-quinoline-3-carboxamide]"
++ (between 25% to 100%),< 10,"O=C(Nc1ccc(C(F)(F)F)cc1)c1c[nH]c2ccccc2c1=O [Compound 236, 4-oxo-N-[4-(trifluoromethyl)phenyl]-1H-quinoline-3-carboxamide]"
++ (between 25% to 100%),–,"COc1ccccc1-c1cc2cc[nH]c2cc1NC(=O)c1c[nH]c2ccccc2c1=O [Compound 237, N-[5-(2-methoxyphenyl)-1H-indol-6-yl]-4-oxo-1H-quinoline-3-carboxamide]"
++ (between 25% to 100%),< 10,"CC(C)(C)OC(=O)N1CCC2(CCNc3cc(NC(=O)c4c[nH]c5ccccc5c4=O)ccc32)CC1 [Compound 238, 7′-[(4-oxo-1H-quinolin-3-ylcarbonyl)amino]-spiro[piperidine-4,4′(1′H)-quinoline], 2′,3′-dihydro-carboxylic acid tert-butyl ester]"
++ (between 25% to 100%),< 10,"COC(=O)Nc1ccc(C(C)C)c(NC(=O)c2c[nH]c3ccccc3c2=O)c1 [Compound 239, [4-isopropyl-3-[(4-oxo-1H-quinolin-3-yl)carbonylamino]phenyl]aminoformic acid methyl ester]"
++ (between 25% to 100%),< 10,"O=C(Nc1ccccc1OCc1ccccc1)c1c[nH]c2ccccc2c1=O [Compound 240, N-(2-benzyloxyphenyl)-4-oxo-1H-quinoline-3-carboxamide]"
++ (between 25% to 100%),10 to 25,"O=C(Nc1cccc2cccnc12)c1c[nH]c2ccccc2c1=O [Compound 241, 4-oxo-N-(8-quinolyl)-1H-quinoline-3-carboxamide]"
++ (between 25% to 100%),< 10,"Nc1cc(NC(=O)c2c[nH]c3ccccc3c2=O)c(Cl)cc1Cl [Compound 242, N-(5-amino-2,4-dichloro-phenyl)-4-oxo-1H-quinoline-3-carboxamide]"
++ (between 25% to 100%),< 10,"Cc1ccc(NC(=O)c2c[nH]c3ccccc3c2=O)cc1C [Compound 246, N-(3,4-dimethylphenyl)-4-oxo-1H-quinoline-3-carboxamide]"
++ (between 25% to 100%),10 to 25,"O=C(c1ccccc1)c1ccccc1NC(=O)c1c[nH]c2ccccc2c1=O [Compound 252, N-(2-benzoylphenyl)-4-oxo-1H-quinoline-3-carboxamide]"
